Experimental data reported in paper PMC3071284 (Bioorganic & medicinal chemistry, 2011).

What was measured:
[1] = target: T1, T. cruzi farnesyl diphosphate synthase (TcFPPS) (Trypanosoma cruzi, UniProt Q8WS26); conditions: cited from earlier work
T1 sequence (Q8WS26 64-425 limits assumed): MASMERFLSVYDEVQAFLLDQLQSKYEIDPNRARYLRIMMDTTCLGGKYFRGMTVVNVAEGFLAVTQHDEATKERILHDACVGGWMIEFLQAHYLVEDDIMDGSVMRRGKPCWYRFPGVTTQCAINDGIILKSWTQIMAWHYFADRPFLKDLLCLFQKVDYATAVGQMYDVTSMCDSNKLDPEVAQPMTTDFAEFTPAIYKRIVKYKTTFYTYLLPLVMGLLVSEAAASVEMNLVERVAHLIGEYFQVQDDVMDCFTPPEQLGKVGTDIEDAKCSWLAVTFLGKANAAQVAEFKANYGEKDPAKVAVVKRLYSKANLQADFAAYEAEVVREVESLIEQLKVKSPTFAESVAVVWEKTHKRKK

T. gondii tachyzoites = T. gondii tachyzoites growth inhibition assay; format: cell-based, Toxoplasma gondii; conditions: result in words
[2] = cited from earlier work
T. cruzi-infected mice = conditions: cited from earlier work

CCCCCCNCC(P(=O)(O)O)P(=O)(O)O [Compound 8]
mode of inhibition of TcFPPS [1]: competitive inhibitor

CCCCCCCCCCNCC(P(=O)(O)O)P(=O)(O)O [Compound 24, 1-[(n-Dec-1-ylamino)ethyl] 1,1-bisphosphonic Acid]
antiparasitic activity against T. gondii cells (T. gondii tachyzoites): practically devoid of antiparasitic activity

CN(C)c1ccc(C(=C2C=CC(=[N+](C)C)C=C2)c2ccc(N(C)C)cc2)cc1 [Crystal violet]
carcinogenicity in in vivo assays [2]: carcinogenic

O=P(O)(O)C(O)(Cc1cccnc1)P(=O)(O)O [risedronate]
survival of T. cruzi-infected mice (T. cruzi-infected mice): significantly increase survival
